Patent US20250290915A1, “METHOD FOR PREDICTING RESPONSIVENESS TO THERAPY” (CANCERTAIN LIMITED, priority 2022, published 2025)

Legend:
Assay type in all cases: cell-based, human
[1] = tested on: Circulating Tumour Cells (CTCs) from a patient with head and neck cancer (squamous cell carcinoma); experiment: Drug response score assay on CTCs from blood, Example 6; details: for Drug response score, conc. 1: conc. 1: Ifos 0.125 μg/ml, Gemcit 2 μg/ml, Doxo 10 ng/ml, Etop 1 μg/ml, Metho 0.5 μg/ml, Capecit 200 μg/ml, Vinor 20 μg/ml; for Drug response score, conc. 1 / Drug response score, conc. 2 / Drug response score, conc. 3 / Drug response score, conc. 4: CTCs, t96h; for Drug response score, conc. 2: conc. 2: Ifos 0.25 μg/ml, Gemcit 10 μg/ml, Doxo 30 ng/ml, Etop 4 μg/ml, Metho 1 μg/ml, Capecit 300 μg/ml, Vinor 40 μg/ml; for Drug response score, conc. 3: conc. 3: Ifos 5 μg/ml, Gemcit 20 μg/ml, Doxo 90 ng/ml, Etop 20 μg/ml, Metho 2 μg/ml, Capecit 400 μg/ml, Vinor 80 μg/ml; for Drug response score, conc. 4: conc. 4: Ifos 10 μg/ml, Gemcit 40 μg/ml, Doxo 270 ng/ml, Etop 100 μg/ml, Metho 4 μg/ml, Capecit 600 μg/ml, Vinor 200 μg/ml; for effectiveness on Circulating Tumour Cells under laboratory conditions / Drug sensitivity as calculated by the assay (interpretation of Drug Response Scores): head and neck cancer CTCs; for Drug sensitivity as calculated by the assay (interpretation of Drug Response Scores): Table 20
How it was run: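 EpCAM+ CTCs isolated after CD45 depletion were plated on PCL electrospun fibre scaffolds and read by RealTime-Glo MT and CellTox Green imaging before and 10 min after drug addition, at 48 h, then re-dosed and read at 96 h. Normalized drug response scores derived per Gupta et al. from start and t96h readouts against blank-well controls.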

[2] = tested on: Circulating Tumour Cells (CTCs) from a patient with colon cancer (sigmoid colon cancer); experiment: Drug response score assay on CTCs from blood, Example 8; set-up: key to Drug response score, conc. 1 / Drug response score, conc. 2 / Drug response score, conc. 3 / Drug response score, conc. 4: normalized drug response metric (Gupta et al. 2020); details: for Drug response score, conc. 1: conc. 1 of each drug as in Table 24; for Drug response score, conc. 1 / Drug response score, conc. 2 / Drug response score, conc. 3 / Drug response score, conc. 4: CTCs, t96h; for Drug response score, conc. 2: conc. 2 of each drug as in Table 24; for Drug response score, conc. 3: conc. 3 of each drug as in Table 24; for Drug sensitivity as calculated by the assay (interpretation of Drug Response Scores): sigmoid colon cancer CTCs, Table 26; for Drug response score, conc. 4: conc. 4 of each drug as in Table 24
How it was run: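 EpCAM+ CTCs isolated from patient blood by CD45 depletion then EpCAM bead selection, and imaged with RealTime-Glo MT viability and CellTox Green cytotoxicity reagents. Agents added, cells cultured at 37° C, 5% CO2 for 48 h, re-dosed, then a further 48 h. Score calculated by normalized drug response metric from t0 and t96h readouts against blank-well controls.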

[3] = tested on: Circulating tumour cells (CTCs) from a patient with GI cancer (Cholangio Carcinoma, stage 4); experiment: Drug response score assay on blood sample, Example 9; set-up: key to Drug response score from blood sample, conc. 1 / Drug response score from blood sample, conc. 2 / Drug response score from blood sample, conc. 3 / Drug response score from blood sample, conc. 4: normalized drug response metric per Gupta et al. 2020; details: for effectiveness on Circulating Tumour Cells under laboratory conditions: GI cancer (Cholangio Carcinoma) blood sample; for Drug response score from blood sample, conc. 1: conc. 1 of each drug as in Table 27; for Drug response score from blood sample, conc. 1 / Drug response score from blood sample, conc. 2 / Drug response score from blood sample, conc. 3 / Drug response score from blood sample, conc. 4: t96h; for Drug response score from blood sample, conc. 2: conc. 2 of each drug as in Table 27; for Drug response score from blood sample, conc. 3: conc. 3 of each drug as in Table 27; for Drug response score from blood sample, conc. 4: conc. 4 of each drug as in Table 27; for Drug sensitivity as calculated by the assay, Blood: interpretation based on Drug Response Scores; for Drug response score from blood sample, conc. 1 / Drug response score from blood sample, conc. 2 / Drug response score from blood sample, conc. 3 / Drug response score from blood sample, conc. 4 / Drug sensitivity as calculated by the assay, Blood: blood sample
Description: (§1) CD45^+ cells and circulating tumour cells (CTCs) were isolated from a blood sample provided by each subject.
(§2) CD45 separation was performed by adding human CD45 microbeads (50 μl/ml blood), incubating for 15 minutes at 4° C. and then processing using an AutoMACS machine. This separates the blood sample into CD45^+ and CD45^−cells in 2 separate falcons. The falcon tubes are then centrifuged at 1200 rpm for 5 minutes.
(§3) The supernatant was removed from the CD45^+falcon tube, and the cells resuspended in DMEM with 2 μl Cell Tox, 2 μl MT and 2 μl MT. 20 μl of the resuspended CD45^+ cells was then plated in each well which will contain an immunotherapy treatment.
(§4) The supernatant was removed from the CD45^−falcon tube, and the CD45^−cells contacted with 100 μl of FcR block and 100 μl of CD326 (EpCAM) MicroBeads, followed by incubation at […] 4° C. for 30 minutes. The CD45^−cells were then processed using an AutoMACS machine to separate the EpCAM positive and negative cells into 2 separate falcon tubes. The EpCAM-cells were discarded. The supernatant was removed from the EpCAM^+ cells, and the cells resuspended in DMEM with 2 μl Cell Tox, 2 μl MT and 2 μl MT. 20 μl of the resuspended pellet was then added to all sample wells excluding a blank. After all wells are added to, a cell count was conducted on the […] to determine the number of circulating tumour cells (CTCs).
(§5) The different cell types were each divided equally into populations, depending on the number of drugs/concentrations to be tested and plated on a cell-culture plate pre-coated with a scaffold of polycaprolactone (PCL) electrospun fibres and incubated at 37° C., 5% CO2, for 5 to (typically 10) minutes to facilitate cell attachment. After attachment, an initial imaging step was carried out using the RealTime-Glo™ MT assay from Promega (Catalogue No. G9711)) and the CellTox™ Green Cytotoxicity Assay (Promega, Catalogue No. G8741), carried out according to manufacturer's instructions. Following this initial imagining, the immunotherapeutic and/or chemotherapeutic agents were added to the cell populations as indicated below. After 10 minutes, the imagining step was repeated. The cell populations were then incubated at 37° C., 5% CO2 for 48 hours. The imaging step was then repeated. The cell populations were then re-dosed with the same immunotherapeutic and/or chemotherapeutic agents as indicated below, and incubated at 37° C., 5% CO2 for a further 48 hours. After this second 48 hour incubation, the imagining step was repeated for a final time.
(§6) At the end of this culture period, dose response scores were calculated using a normalized drug response metric as described in Gupta et al. (Communications Biology volume 3, Article number: 42 (2020), https://doi.org/10.1038/s42003-020-0765-z). The start readout for a given immunotherapeutic or chemotherapeutic agent at a given concentration was the to readout for said immunotherapeutic or chemotherapeutic agent at a specified concentration. The end readout for a given immunotherapeutic or chemotherapeutic agent at a given concentration was the final timepoint reading (t96h) for said immunotherapeutic or chemotherapeutic agent at a specified concentration.
(§7) The positive control start readout for a given drug/concentration was the to readout for the corresponding drug at a specified concentration. The positive control end readout for the corresponding drug at a specified concentration was the final timepoint reading (t96h) for the corresponding blank well.
(§8) The negative control start and end readouts for a given immunotherapeutic or chemotherapeutic agent at a given concentration were the to and final timepoint reading (t96h) respectively for blank cell or blank immuno cell well respectively.
(§9) The sensitivity or resistance of a subject's cancer to a given immunotherapeutic or chemotherapeutic agent was determined based on the calculated drug response score as shown in Table 2. […]

[4] = tested on: Circulating Tumour Cells (CTCs) from a patient with rectal cancer (anorectal carcinoma with secondary lung cancer); experiment: Drug response score assay on CTCs (with CD45+ cells for immunotherapy) from blood, Example 3; details: for Drug response score, conc. 1: conc. 1: Pembro 20 μg/ml, Nivo 20 μg/ml (CTCs + CD45+ cells), Lenva 50 ng/ml, Regor 60 μg/ml (CTCs); for Drug response score, conc. 1 / Drug response score, conc. 2 / Drug response score, conc. 3 / Drug response score, conc. 4: t96h; for Drug response score, conc. 2: conc. 2: Pembro 40 μg/ml, Nivo 40 μg/ml (CTCs + CD45+ cells), Lenva 100 ng/ml, Regor 80 μg/ml (CTCs); for Drug response score, conc. 3: conc. 3: Pembro 100 μg/ml, Nivo 80 μg/ml (CTCs + CD45+ cells), Lenva 200 ng/ml, Regor 120 μg/ml (CTCs); for Drug response score, conc. 4: conc. 4: Pembro 160 μg/ml, Nivo 160 μg/ml (CTCs + CD45+ cells), Lenva 400 ng/ml, Regor 160 μg/ml (CTCs); for effectiveness on Circulating Tumour Cells under laboratory conditions / Drug sensitivity as calculated by the assay (interpretation of Drug Response Scores): rectal cancer CTCs; for Drug sensitivity as calculated by the assay (interpretation of Drug Response Scores): Table 11
Description: as §1, §2, §3, §4, §5, §6, §7, §8, §9

Row | Molecule | Drug response score, conc. 1 [1] | Drug response score, conc. 2 [1] | Drug response score, conc. 3 [1] | Drug response score, conc. 4 [1] | effectiveness on Circulating Tumour Cells under laboratory conditions [1] | Drug sensitivity as calculated by the assay (interpretation of Drug Response Scores) [1] | Drug response score, conc. 1 [2] | Drug response score, conc. 2 [2] | Drug response score, conc. 3 [2] | Drug sensitivity as calculated by the assay (interpretation of Drug Response Scores) [2] | effectiveness on Circulating Tumour Cells under laboratory conditions [3] | Drug response score from blood sample, conc. 1 [3] | Drug response score from blood sample, conc. 2 [3] | Drug response score from blood sample, conc. 3 [3] | Drug response score from blood sample, conc. 4 [3] | Drug response score, conc. 1 [4] | Drug response score, conc. 2 [4] | Drug response score, conc. 3 [4] | Drug response score, conc. 4 [4] | effectiveness on Circulating Tumour Cells under laboratory conditions [4] | also measured
1 | COc1cccc2c1C(=O)c1c(O)c3c(c(O)c1C2=O)C[C@@](O)(C(=O)CO)C[C@@H]3O[C@H]1C[C@H](N)[C@H](O)[C@H](C)O1 [Doxorubicin] | 0.7699 | 0.9452 | 0.6229 | 0.7995 | Sensitive S+ | Sensitive (S+) | −0.0102 | −0.0852 | −0.2828 | Sensitive (S++) | – | – | – | – | – | – | – | – | – | – | –
2 | COc1cc([C@@H]2c3cc4c(cc3[C@@H](O[C@@H]3O[C@@H]5CO[C@@H](C)O[C@H]5[C@H](O)[C@H]3O)[C@H]3COC(=O)[C@H]23)OCO4)cc(OC)c1O [Etoposide] | 0.9372 | 0.6295 | 0.9862 | 0.5135 | Sensitive S+ | Sensitive (S+) | −0.4099 | −0.6338 | −0.6648 | Sensitive (S++) | – | – | – | – | – | – | – | – | – | – | Drug response score, conc. 4 [2]: 0.1129
3 | O=P1(NCCCl)OCCCN1CCCl (centres unmarked) [Ifosfamide] | 0.7257 | 0.2439 | 0.9228 | 0.3682 | Sensitive S+ | Sensitive (S+) | – | – | – | – | – | – | – | – | – | – | – | – | – | – | –
4 | COc1cc2nccc(Oc3ccc(NC(=O)NC4CC4)c(Cl)c3)c2cc1C(N)=O [Lenvatinib] | – | – | – | – | – | – | – | – | – | – | S+ | 0.2851 | 0.3155 | 0.4097 | 0.6214 | 2.0109 | 1.6409 | 0.8991 | 2.0235 | not effective | Drug sensitivity as calculated by the assay, Blood [3]: S+; Drug sensitivity as calculated by the assay (interpretation of Drug Response Scores) [4]: Resistant
5 | CC(=O)O[C@H]1C(=O)[C@@]2(C)[C@H]([C@H](OC(=O)c3ccccc3)[C@]3(O)C[C@H](OC(=O)[C@H](O)[C@@H](NC(=O)c4ccccc4)c4ccccc4)C(C)=C1C3(C)C)[C@]1(OC(C)=O)CO[C@@H]1C[C@@H]2O [Paclitaxel] | – | – | – | – | – | – | −0.8976 | −0.1500 | −0.5818 | Sensitive (S++) | S+ | 0.2346 | 0.5329 | 0.5298 | 0.756 | – | – | – | – | – | Drug response score, conc. 4 [2]: −0.8009
6 | Nivolumab | – | – | – | – | – | – | – | – | – | – | – | 1 | 0.2783 | 1.061 | 1.046 | 0.4990 | 0.6429 | 0.6261 | 1.0807 | Sensitive S+ | Drug sensitivity as calculated by the assay (interpretation of Drug Response Scores) [4]: Sensitive (S+)
7 | Pembrolizumab | – | – | – | – | – | – | – | – | – | – | S+ | 0.00068 | 0.1572 | 1.041 | 0.6989 | 0.6167 | 0.4053 | 0.9748 | 0.7712 | Sensitive S+ | Drug sensitivity as calculated by the assay, Blood [3]: S+; Drug sensitivity as calculated by the assay (interpretation of Drug Response Scores) [4]: Sensitive (S+)
